# Reference: ChEMBL document CHEMBL6092216, “Development of α-Helical Antimicrobial Peptides with Imperfect Amphipathicity for Superior Activity and Selectivity” (J Med Chem, 2024)
# Activity calls are given as the source filed them. The rule behind the calls is not given here.
# Assays:
# Staphylococcus aureus [1] = experiment: Induction of bacterial cell rupture in Staphylococcus aureus ATCC 6538 assessed as membrane rupture, roughening and blebbing of membrane at 5XMIC measured after 30 mins by transmission electron microscopy; type: functional, organism-based
# Acinetobacter baumannii [2] = experiment: Antipersister-activity against Acinetobacter baumannii ATCC 19606 assessed as elimination of persister cells preincubated adherent persistent cells with colistin for 24 hrs followed by incubation with drug for 12 hrs; type: functional, organism-based
# Staphylococcus aureus [3] = experiment: Bactericidal activity against Staphylococcus aureus ATCC 6538 assessed as elimination of bacterial cells at 5XMIC measured within 1 hr by killing kinetic assay; type: functional
# Escherichia coli = experiment: Antibacterial activity against Escherichia coli 1007 assessed as inhibition of bacterial growth incubated for 24 hrs by tube microdilution assay; type: functional
# Cell membrane [4] = experiment: Induction of membrane permeabilization in Pseudomonas aeruginosa 17068 assessed as increase in fluorescence intensity at 1X to 10XMIC measured for 90 mins by propidium iodide staining based fluorescence analysis; type: subcellular
# Pseudomonas aeruginosa [5] = experiment: Bactericidal activity against Pseudomonas aeruginosa ATCC 27853 assessed as elimination of bacterial cells at 5XMIC measured within 1 hr by killing kinetic assay; type: functional
# Pseudomonas aeruginosa [6] = experiment: Antipersister-activity against Pseudomonas aeruginosa ATCC 27853 assessed as elimination of persister cells preincubated adherent persistent cells with colistin for 24 hrs followed by incubation with drug for 12 hrs; type: functional, organism-based
# Erythrocyte = experiment: Induction of hemolysis in mouse red blood cells at 1.56 to 100 ug/ml incubated for 1 hr; type: toxicity, cell-based; settings: dose 1.56-100 µg/ml
# Staphylococcus aureus [7] = experiment: Antibacterial activity against methicillin-resistant Staphylococcus aureus Z assessed as inhibition of bacterial growth incubated for 24 hrs by tube microdilution assay; type: functional
# Staphylococcus aureus [8] = experiment: Antibacterial activity against methicillin-resistant Staphylococcus aureus 42 assessed as inhibition of bacterial growth incubated for 24 hrs by tube microdilution assay; type: functional
# Staphylococcus aureus [9] = experiment: Antibacterial activity against Staphylococcus aureus ATCC 6538 infected in BALB/c mouse assessed as inhibition of bacterial colonization on wounded skin at 2 mg/ml applied on skin and measured after 2 hrs relative to control; type: functional
# Pseudomonas aeruginosa [10] = experiment: Antibacterial activity against Pseudomonas aeruginosa 52097 assessed as inhibition of bacterial growth incubated for 24 hrs by tube microdilution assay; type: functional
# Staphylococcus aureus [11] = experiment: Antibacterial activity against methicillin-resistant Staphylococcus aureus 22 assessed as inhibition of bacterial growth incubated for 24 hrs by tube microdilution assay; type: functional
# Staphylococcus aureus [12] = experiment: Antibacterial activity against Staphylococcus aureus 08310 assessed as inhibition of bacterial growth incubated for 24 hrs by tube microdilution assay; type: functional
# Staphylococcus aureus [13] = experiment: Antibacterial activity against Staphylococcus aureus 11842 assessed as inhibition of bacterial growth incubated for 24 hrs by tube microdilution assay; type: functional
# Cell membrane [14] = experiment: Induction of membrane permeabilization in Staphylococcus aureus ATCC 6538 assessed as increase in fluorescence intensity at 1X to 10XMIC measured for 90 mins by propidium iodide staining based fluorescence analysis; type: subcellular
# Pseudomonas aeruginosa [15] = experiment: Induction of bacterial cell rupture in Pseudomonas aeruginosa ATCC 27853 assessed as bacterial membrane damage with visible surface irregularities and protrusions at 5XMIC measured after 30 mins scanning electron microscopy; type: functional, organism-based
# Staphylococcus aureus [16] = experiment: Antibiofilm activity against Staphylococcus aureus ATCC 6538 assessed as inhibition of biofilm formation at 1X to 10XMIC incubated for 24 hrs by crystal violet staining based analysis; type: functional, organism-based
# Pseudomonas aeruginosa [17] = experiment: Antibacterial activity against Pseudomonas aeruginosa 60357 assessed as inhibition of bacterial growth incubated for 24 hrs by tube microdilution assay; type: functional
# Acinetobacter baumannii [18] = experiment: Antibacterial activity against Acinetobacter baumannii 10769 assessed as inhibition of bacterial growth incubated for 24 hrs by tube microdilution assay; type: functional
# Staphylococcus aureus [19] = experiment: Antibacterial activity against Staphylococcus aureus ATCC 6538 assessed as inhibition of bacterial growth by tube microdilution assay; type: functional
# Pseudomonas aeruginosa [20] = experiment: Induction of bacterial cell rupture in Pseudomonas aeruginosa ATCC 27853 assessed as induction of internal perturbations and breaks along the membrane at 5XMIC measured after 30 mins transmission electron microscopy; type: functional, organism-based
# Staphylococcus aureus [21] = experiment: Antipersister-activity against Staphylococcus aureus ATCC 6538 assessed as elimination of persister cells preincubated adherent persistent cells with vancomycin for 24 hrs followed by incubation with drug for 12 hrs; type: functional, organism-based
# Pseudomonas aeruginosa [22] = experiment: Antibacterial activity against Pseudomonas aeruginosa 90068 assessed as inhibition of bacterial growth incubated for 24 hrs by tube microdilution assay; type: functional
# Staphylococcus aureus [23] = experiment: Antibacterial activity against Staphylococcus aureus ATCC 6538 infected in BALB/c mouse assessed as inhibition of bacterial colonization on wounded skin at 0.5 mg/ml applied on skin and measured after 2 hrs relative to control; type: functional
# Staphylococcus aureus [24] = experiment: Antibacterial activity against methicillin-resistant Staphylococcus aureus 51 assessed as inhibition of bacterial growth incubated for 24 hrs by tube microdilution assay; type: functional
# Cell membrane [25] = experiment: Induction of membrane permeabilization in Escherichia coli 0894 assessed as increase in fluorescence intensity at 1X to 10XMIC measured for 90 mins by propidium iodide staining based fluorescence analysis; type: subcellular
# Pseudomonas aeruginosa [26] = experiment: Bactericidal activity against Pseudomonas aeruginosa ATCC 27853 assessed as bacterial cell killing measured after 60 passages; type: functional, organism-based
# Staphylococcus aureus [27] = experiment: Antibiofilm activity against preformed Staphylococcus aureus ATCC 6538 biofilms assessed as biofilm eradication at 1X to 10XMIC incubated for 24 hrs by crystal violet staining based analysis; type: functional, organism-based
# Pseudomonas aeruginosa [28] = experiment: Bactericidal activity against Pseudomonas aeruginosa ATCC 27853 assessed as elimination of bacterial cells at 5X to 10XMIC measured within 3 hrs by killing kinetic assay; type: functional
# Staphylococcus aureus [29] = experiment: Antibacterial activity against Staphylococcus aureus 15775 assessed as inhibition of bacterial growth incubated for 24 hrs by tube microdilution assay; type: functional
# Acinetobacter baumannii [30] = experiment: Antibacterial activity against Acinetobacter baumannii ATCC 19606 assessed as inhibition of bacterial growth by tube microdilution assay; type: functional
# Staphylococcus aureus [31] = experiment: Antibacterial activity against Staphylococcus aureus 157752 assessed as inhibition of bacterial growth incubated for 24 hrs by tube microdilution assay; type: functional
# Staphylococcus aureus [32] = experiment: Antibacterial activity against methicillin-resistant Staphylococcus aureus 21 assessed as inhibition of bacterial growth incubated for 24 hrs by tube microdilution assay; type: functional
# Staphylococcus aureus [33] = experiment: Bactericidal activity against Staphylococcus aureus ATCC 6538 assessed as bacterial cell killing measured after 35 passages; type: functional, organism-based
# Acinetobacter baumannii [34] = experiment: Antibiofilm activity against preformed Acinetobacter baumannii ATCC 19606 biofilms assessed as biofilm eradication at 1X to 10XMIC incubated for 24 hrs by crystal violet staining based analysis; type: functional, organism-based
# Cell membrane [35] = experiment: Induction of membrane permeabilization in Acinetobacter baumannii 0357 assessed as increase in fluorescence intensity at 1X to 10XMIC measured for 90 mins by propidium iodide staining based fluorescence analysis; type: subcellular
# Staphylococcus aureus [36] = experiment: Induction of bacterial cell rupture in Staphylococcus aureus ATCC 6538 assessed as membrane rupture, roughening and blebbing of membrane at 5XMIC measured after 30 mins by scanning electron microscopy; type: functional, organism-based
# Staphylococcus aureus [37] = experiment: Bactericidal activity against Staphylococcus aureus ATCC 6538 assessed as elimination of bacterial cells at 5X to 10X MIC measured within 3 hrs by killing kinetic assay; type: functional
# Acinetobacter baumannii [38] = experiment: Antibiofilm activity against Acinetobacter baumannii ATCC 19606 assessed as inhibition of biofilm formation at 1X to 10XMIC incubated for 24 hrs by crystal violet staining based analysis; type: functional, organism-based
substance,measurement,setting,value
H-RRGIKKFIKKVKKVKKAI-OH,Activity,Staphylococcus aureus [1],Active; Roughening And Blebbing Of Membrane Is Less Pronounced Than In Pseudomonas Aeruginosa
same,Activity,Acinetobacter baumannii [2],Dose-dependent-effect
same,Activity,Staphylococcus aureus [3],99.7%
same,MIC,Escherichia coli,9.37 µg/mL
same,Activity,Cell membrane [4],Dose-dependent-effect
same,Activity,Pseudomonas aeruginosa [5],96.6%
same,Activity,Pseudomonas aeruginosa [6],Dose-dependent-effect
same,Activity,Erythrocyte,Non-toxic
same,MIC,Staphylococcus aureus [7],2.34 µg/mL
same,MIC,Staphylococcus aureus [8],2.34 µg/mL
same,inhibition in vivo at 2000 µg/mL,Staphylococcus aureus [9],82.4%
same,MIC,Pseudomonas aeruginosa [10],1.17 µg/mL
same,MIC,Staphylococcus aureus [11],2.34 µg/mL
same,MIC,Staphylococcus aureus [12],2.34 µg/mL
same,MIC,Staphylococcus aureus [13],2.34 µg/mL
same,Activity,Cell membrane [14],Dose-dependent-effect
same,Activity,Pseudomonas aeruginosa [15],Active
same,Activity,Staphylococcus aureus [16],Dose-dependent-effect
same,MIC,Pseudomonas aeruginosa [17],1.17 µg/mL
same,MIC,Acinetobacter baumannii [18],2.34 µg/mL
same,MIC,Staphylococcus aureus [19],2.34 µg/mL
same,Activity,Pseudomonas aeruginosa [20],Active
same,Activity,Staphylococcus aureus [21],Dose-dependent-effect
same,MIC,Pseudomonas aeruginosa [22],1.17 µg/mL
same,inhibition in vivo at 500 µg/mL,Staphylococcus aureus [23],71.8%
same,MIC,Staphylococcus aureus [24],2.34 µg/mL
same,Activity,Cell membrane [25],Dose-dependent-effect
same,Activity,Pseudomonas aeruginosa [26],Active
same,Activity,Staphylococcus aureus [27],Active
same,Activity,Pseudomonas aeruginosa [28],100%
same,MIC,Staphylococcus aureus [29],2.34 µg/mL
same,MIC,Acinetobacter baumannii [30],2.34 µg/mL
same,MIC,Staphylococcus aureus [31],2.34 µg/mL
same,MIC,Staphylococcus aureus [32],2.34 µg/mL
same,Activity,Staphylococcus aureus [33],Active
same,Activity,Acinetobacter baumannii [34],Active
same,Activity,Cell membrane [35],Dose-dependent-effect
same,Activity,Staphylococcus aureus [36],Active; Roughening And Blebbing Of Membrane Is Less Pronounced Than In Pseudomonas Aeruginosa
same,Activity,Staphylococcus aureus [37],100%
same,Activity,Acinetobacter baumannii [38],Dose-dependent-effect
